Experimental data as given in patent US20240366577A1, “CONTROLLED LONG-TERM DRUG DELIVERY AND METHODS THEREOF” (THE JOHNS HOPKINS UNIVERSITY, priority 2021, published 2024).

Tests used:
[1] = test system: VE-Cdh, aSMact, Cd34; assay: qPCR of retrieved tumors: VE-Cdh, aSMact, Cd34; type: in vivo, BALB/c mice; settings: crystals, compared to daily bolus; tumors at end of study
Procedure: To determine the anti-angiogenic efficacy of each sorafenib treatment group, qPCR gene expression analysis was performed on retrieved tumors at the conclusion of the study. In particular, analysis for levels of endothelial cell marker Cd31, vascular endothelial-cadherin (VE-Cdh), smooth muscle pericyte marker alpha Smooth Muscle actin (aSMact), and stem/progenitor cell marker Cd34 were conducted, as shown in FIG. 3F.
1 mL of TRIzol reagent (Cat#15596018, ThermoFisher) was added to 100 mg samples of tumor tissue and broken down with a power homogenizer (Polytron/VWR). Homogenized samples were incubated at room temperature for 5 min for complete nucleoprotein dissociation, then 0.2 ml of chloroform (Sigma) was added to each sample. Samples were shaken vigorously for 15 seconds and incubated at room temperature for 3 min before centrifuging at 12,000 g for 15 min at 4° C. The uppermost supernatant layer was pipetted into a 1.7 mL Eppendorf tube, with the remaining interphase and organic layer discarded. 0.5 mL of isopropanol (Sigma) was added to each sample, and then samples were incubated for 10 min. Samples were centrifuged at 12,000 g for 10 min at 4° C. […] Depending on size of resultant pellet, pellets were resuspended in 50-100 μL, and nucleic acid concentration was measured using a NanoDrop 2000 spectrophotometer (ThermoFisher). […]

[2] = test system: choroidal neovascularization (CNV); assay: mouse laser-induced CNV model, fundus fluorescein angiography; type: in vivo; settings: two intravitreal doses (14 days before and 1 day after laser) vs saline; p=0.0290 single lesion analysis
Excerpt: Wet age-related macular degeneration (wet AMD) is a leading cause of blindness in the U.S. and globally, requiring effective treatments, particularly with the use of drugs or treatments that allow sustained management of the disease. Choroidal neovascularization (CNV), or pathologic angiogenesis, is the cause of the visual loss that occurs in wet AMD. Therefore, sorafenib is also a possible treatment for wet AMD, but the effect of the drug when delivered in a liquid form is brief. It has been shown that optimized crystal formulations of sorafenib providing sustained release have the potential to work over a longer period of time. As shown herein, the experiments tested the effect of intravitreal administration of crystal sorafenib vs. vehicle, in saline, of sorafenib in a mouse laser-induced CNV model. FIG. 5 depicts a timeline of an experimental procedure, in accordance with the present disclosure. Crystalline sorafenib, as described herein, was administered to two batches of mice. In the first batch of mice, 16 mice were injected, 14 days before a laser treatment and 1 day after laser treatment. In the second batch of mice, 13 mice were injected 7 days before laser treatment. FIGS. 6A-6D depict charts of fluorescent intensity as measured with the use of fundus fluorescein angiography (FFA), according to the present disclosure. […]

[3] = body weight of treated tumor-bearing mice; type: in vivo, BALB/c mice; settings: crystals in ~100-200 μl saline, IP or SC, any site or dose tested
Procedure: However, due to the highly hydrophobic nature of sorafenib, its daily 25 mg/kg bolus dosing regimen required regular used of a solvent solution made up of ˜60% of the strong organic solvent dimethylsulfoxide (DMSO). […] In stark contrast, no DMSO was required for delivery of sorafenib crystals, for which instead simply utilized ˜100-200 μl of saline to inject into the desired IP or SC tissue sites.
Once tumors had reached an average volume of ˜220-250 mm^3, mice were administered either subcutaneously or intraperitoneally with 3 or 10 mg of crystalline sorafenib, diameter ˜150-200 μm, suspended in 200 μL of sterile saline using an 18 g needle. As a control, mice (n=4) were dosed with sorafenib dissolved at a concentration of 4 mg/mL in a solution of 65% DMSO (remainder DPBS). Mice were dosed either subcutaneously or intraperitoneally with a bolus of 25 mg drug per kg of bodyweight (BW), daily. As a secondary control, mice were dosed with the 65% DMSO/PBS vehicle to monitor changes in body score based on the vehicle alone.

CNC(=O)c1cc(Oc2ccc(NC(=O)Nc3ccc(Cl)c(C(F)(F)F)c3)cc2)ccn1 [crystalline sorafenib, sorafenib]
knockdown of VE-Cdh, aSMact and Cd34 (qPCR) [1]: not as significant
CNV (FFA fluorescent intensity) [2]: appears to reduce CNV
effect on bodyweight [3]: did not negatively affect bodyweight
